Reference: patent US7923443B2, “Pharmaceutical composition for the treatment of bone fracture” (Dong Wha Pharmaceutical Co., Ltd., priority 2004, dated 2011)
Marks after values point to notes of the source that are not given here.

Assays:
Type in all cases: in vivo, S.D. rats
rib fracture = test: Effect of promoting fracture healing in rib fracture-induced rat model (overall); conditions: compared with the results for N-hydroxy benzamidine compound above
Description: (§1) The benzamidine compound of Chemical Formula 1 was assayed for therapeutic effect on bone fracture in rat models subjected to rib fracture. Starting from 2 days after the induction of rib fracture, the administration of the benzamidine compound was continued for one, two, three and four weeks. Changes in (body weight, body weight gain, volume of bony callus, bone density, bone strength, and bone histopathology were observed.
(§2) A total of 80 S.D. rats (10-week-old, BioGenomics, Korea) was adapted to a laboratory environment for 12 days before being used in experiments. While being housed at a density of two or three to a plastic cage, the experimental animals were kept in a breeding room under controlled temperature (20 to 25° C.) and humidity (30 to 35%). Under light-dark cycles of 12 hours, the rats were allowed to have free access to feedstuff and tap water.
(§3) 10 mg and 50 mg of N-hydroxy-4-{5-[4-(5-isopropyl-2-methyl-1,3-thiazol-4-yl)phenoxy]pentoxy}benzamidine were completely dissolved in 5 ml of sterilized distilled water. The benzamidine compound in the solutions was orally administered at doses of 10 mg and 50 mg per kg of body weight once a day for one, two, three and four weeks from day 2 of the surgery. […]

bony callus [1] = test: Histopathological observation of 8th rib (FIG. 1); conditions: all administration time periods; versus non-treated group; dose-dependent
Description: FIG. 1 an optical microphotograph showing sliced tissue specimens of the 8th rib extracted after fracture induction, stained with Masson's trichrome.
as §1, §2, §3

[2] = test system: bony callus formed around the fractured 8th and 9th ribs; test: Volume of bony callus in rib fracture-induced rat model
Description: as §1, §2
(§4) 10 mg and 50 mg of N-hydroxy-4-{5-[4-(5-isopropyl-2-methyl-1,3-thiazol-4-yl)phenoxy]pentoxy}benzamidine were completely dissolved in 5 ml of sterilized distilled water. The benzamidine compound in the solutions was orally administered at doses of 10 mg and 50 mg per kg of body weight once a day for one, two, three and four weeks from day 2 of the surgery.
(§5) All the experimental animals were anesthetized with ketamine hydrochloride and xylazine hydrochloride and underwent an operation for inducing a fracture on the 8th and the 9th rib. In this regard, the ribs were transversely cut with operation scissors. After the fracture induction, the fractured ribs were assembled to be aligned with each other and the wound cavity was closed through skin suture.
On the sacrificial day, the bony callus formed around the fractured 8th and 9th ribs was separated from adjacent tissues and taken out of all experimental animals. The enucleated bony calluses were measured for long and short diameters in millimeters. The volume of the bony callus was calculated from the measurements using the following mathematic formula 1. Volume of Bony callus=½×(a×b^2) Formula 1
a: long diameter of bony callus,
b: short diameter of bony callus.

[3] = Body weight gain in rib fracture-induced rat model
Description: as §1, §2, §4, §5
All the experimental animals were measured for body weight one day before the operation, the day of the operation, the day of administration, and 7, 14, 21 and 28 days after administration. In order to reduce the difference among individuals due to feedstuff intake, all experimental animals were starved for 18 hours or more on the day of the measurement. Also, to minimize the difference of change in body weight of individual animals, body weight gain during time periods from the day of the operation to 7, 14, 21 and 28 days after the administration were calculated.

bony callus [4] = test: Bone strength of bony callus (three point bending test), 9th rib
Description: as §1, §2, §4, §5
The bone strength around the fracture face at which a bony callus was formed in the 9th rib enucleated after the fracture induction was determined from three point bending tests using an Instron material testing system (Instron 6022; Instron, USA; speed 20 mm/min).

bony callus [5] = test: Bone density of bony callus (DEXA), 9th rib
Description: as §1, §2, §4, §5
The 9th rib enucleated after the fracture induction was measured for the bone density around the bony callus using dual-energy x-ray absorptiometry (DEXA, PXImus; Lunar Medison, Wis.) and the bone density is calculated in mg/cm^2 in Table 7.

bony callus [6] = test: Histomorphometry of bony callus (connective, cartilage, bone tissue content), 8th rib
Description: as §1, §2, §4, §5
(§6) The 8th rib enucleated after the fracture induction was fixed in 10% neutral formalin, followed by decalcification by changing a decalcification solution (2.24% formic acid, 0.5N […]) with fresh solution once a day for five days. After completion of the decalcification, the rib was embedded in paraffin. The paraffin-embedded tissue was sliced at a thickness of 3 to 4 μm, stained with hematoxylin-eosin or Masson's trichrome and observed through an optical microscope.
From the rib tissue specimen prepared above, the amounts of the connective tissue, cartilage and bone tissue in the bony callus were examined using an Analysis Image processing system (SIS Germany) and are represented as percentages in Tables 3 to 5, below.

[7] = test system: osteoclasts in the bony callus; test: Number of osteoclasts in the bony callus, 8th rib
Description: as §1, §2, §4, §5, §6
Furthermore, the number of osteoclasts in the bony callus, particularly, within an area of (200 μm)^2 on the fracture surface at which endochondral ossification commenced, was measured using an Analysis Image processing system (SIS Germany).

[8] = 10 mg/kg oral once a day, 7 days after administration
[9] = 10 mg/kg oral once a day, 14 days after administration
[10] = 10 mg/kg oral once a day, 21 days after administration
[11] = 10 mg/kg oral once a day, 28 days after administration
[12] = 50 mg/kg oral once a day, 7 days after administration
[13] = 50 mg/kg oral once a day, 14 days after administration
[14] = 50 mg/kg oral once a day, 21 days after administration
[15] = 50 mg/kg oral once a day, 28 days after administration

## Cc1nc(-c2ccc(OCCCCCOc3ccc(C(=N)N)cc3)cc2)c(C(C)C)s1 [4-{5-[4-(5-isopropyl-2-methyl-1,3-thiazol-4-yl)phenoxy]pentoxy}benzamidine]
Rib fracture
  Healing effects on bone fracture: same healing effects as above

## Cc1nc(-c2ccc(OCCCCCOc3ccc(C(=N)NO)cc3)cc2)c(C(C)C)s1 [Cpd. Of Chemical Formula 1, N-hydroxy-4-{5-[4-(5-isopropyl-2-methyl-1,3-thiazol-4-yl)phenoxy]pentoxy}benzamidine]
Bony callus [1]
  Bone tissue in bony callus, histopathological observation (FIG. 1): increased bone tissue in bony callus in all administration time periods
[2]; [8]
  Changes in Bony Callus Volume: 12.84 ± 4.42* mm^3
[2]; [9]
  Changes in Bony Callus Volume: 5.47 ± 1.81* mm^3
[2]; [10]
  Changes in Bony Callus Volume: 4.73 ± 2.13* mm^3
[2]; [11]
  Changes in Bony Callus Volume: 3.96 ± 2.41* mm^3
[2]; [12]
  Changes in Bony Callus Volume: 8.62 ± 3.43* mm^3
[2]; [13]
  Changes in Bony Callus Volume: 4.36 ± 1.44* mm^3
[2]; [14]
  Changes in Bony Callus Volume: 3.84 ± 1.86* mm^3
[2]; [15]
  Changes in Bony Callus Volume: 3.37 ± 0.79* mm^3
[3]; [8]
  Changes in Body Weight Gain: 16.00 ± 13.55 g
[3]; [9]
  Changes in Body Weight Gain: 44.40 ± 14.54 g
[3]; [10]
  Changes in Body Weight Gain: 46.40 ± 22.39 g
[3]; [11]
  Changes in Body Weight Gain: 61.20 ± 22.81 g
[3]; [12]
  Changes in Body Weight Gain: 14.80 ± 08.81 g
[3]; [13]
  Changes in Body Weight Gain: 36.82 ± 29.52 g
[3]; [14]
  Changes in Body Weight Gain: 68.60 ± 16.65 g
[3]; [15]
  Changes in Body Weight Gain: 84.40 ± 23.37 g
Bony callus [4]; [8]
  Changes in bone strength of bony callus: 2.15 ± 0.42 Nos. of Impact applied
Bony callus [4]; [9]
  Changes in bone strength of bony callus: 2.57 ± 0.65 Nos. of Impact applied
Bony callus [4]; [10]
  Changes in bone strength of bony callus: 3.10 ± 0.40 Nos. of Impact applied
Bony callus [4]; [11]
  Changes in bone strength of bony callus: 3.26 ± 0.43 Nos. of Impact applied
Bony callus [4]; [12]
  Changes in bone strength of bony callus: 2.35 ± 0.47 Nos. of Impact applied
Bony callus [4]; [13]
  Changes in bone strength of bony callus: 2.84 ± 0.34 Nos. of Impact applied
Bony callus [4]; [14]
  Changes in bone strength of bony callus: 3.23 ± 0.35 Nos. of Impact applied
Bony callus [4]; [15]
  Changes in bone strength of bony callus: 3.35 ± 0.38 Nos. of Impact applied
Bony callus [5]; [8]
  Changes in Bone Density of Bony Callus: 0.24 ± 0.04 mg/cm^2
Bony callus [5]; [9]
  Changes in Bone Density of Bony Callus: 0.32 ± 0.04 mg/cm^2
Bony callus [5]; [10]
  Changes in Bone Density of Bony Callus: 0.39 ± 0.04 mg/cm^2
Bony callus [5]; [11]
  Changes in Bone Density of Bony Callus: 0.55 ± 0.06 mg/cm^2
Bony callus [5]; [12]
  Changes in Bone Density of Bony Callus: 0.24 ± 0.03 mg/cm^2
Bony callus [5]; [13]
  Changes in Bone Density of Bony Callus: 0.32 ± 0.04 mg/cm^2
Bony callus [5]; [14]
  Changes in Bone Density of Bony Callus: 0.44 ± 0.07 mg/cm^2
Bony callus [5]; [15]
  Changes in Bone Density of Bony Callus: 0.57 ± 0.04 mg/cm^2
Bony callus [6]; [8]
  Changes in Content of Bone Tissue in Bony Callus: 37.95 ± 6.44 % relative to total bony callus
  Changes in Content of Cartilage Tissue in Bony Callus: 24.79 ± 5.43 % relative to total bony callus
  Changes in Content of Connective Tissue of Bony Callus: 33.19 ± 3.06 % relative to total bony callus
Bony callus [6]; [9]
  Changes in Content of Bone Tissue in Bony Callus: 54.31 ± 9.50 % relative to total bony callus
  Changes in Content of Cartilage Tissue in Bony Callus: 23.77 ± 3.44 % relative to total bony callus
  Changes in Content of Connective Tissue of Bony Callus: 6.28 ± 0.72 % relative to total bony callus
Bony callus [6]; [10]
  Changes in Content of Bone Tissue in Bony Callus: 66.71 ± 5.41 % relative to total bony callus
  Changes in Content of Cartilage Tissue in Bony Callus: 18.51 ± 2.29 % relative to total bony callus
  Changes in Content of Connective Tissue of Bony Callus: 5.55 ± 1.42 % relative to total bony callus
Bony callus [6]; [11]
  Changes in Content of Bone Tissue in Bony Callus: 83.30 ± 4.43 % relative to total bony callus
  Changes in Content of Cartilage Tissue in Bony Callus: 6.59 ± 2.02 % relative to total bony callus
  Changes in Content of Connective Tissue of Bony Callus: 3.20 ± 0.89 % relative to total bony callus
Bony callus [6]; [12]
  Changes in Content of Bone Tissue in Bony Callus: 39.24 ± 14.12 % relative to total bony callus
  Changes in Content of Cartilage Tissue in Bony Callus: 22.42 ± 5.45 % relative to total bony callus
  Changes in Content of Connective Tissue of Bony Callus: 29.51 ± 5.70 % relative to total bony callus
Bony callus [6]; [13]
  Changes in Content of Bone Tissue in Bony Callus: 55.94 ± 8.38 % relative to total bony callus
  Changes in Content of Cartilage Tissue in Bony Callus: 20.09 ± 6.38 % relative to total bony callus
  Changes in Content of Connective Tissue of Bony Callus: 6.06 ± 0.44 % relative to total bony callus
Bony callus [6]; [14]
  Changes in Content of Bone Tissue in Bony Callus: 74.07 ± 8.43 % relative to total bony callus
  Changes in Content of Cartilage Tissue in Bony Callus: 11.49 ± 2.31 % relative to total bony callus
  Changes in Content of Connective Tissue of Bony Callus: 3.58 ± 0.62 % relative to total bony callus
Bony callus [6]; [15]
  Changes in Content of Bone Tissue in Bony Callus: 87.27 ± 8.97 % relative to total bony callus
  Changes in Content of Cartilage Tissue in Bony Callus: 5.37 ± 1.38 % relative to total bony callus
  Changes in Content of Connective Tissue of Bony Callus: 2.59 ± 0.52 % relative to total bony callus
[7]; [8]
  Changes in Population of Osteoclasts within Bony Callus: 43.80 ± 3.83 Counts present within (200 μm)^2 of bony callus
[7]; [9]
  Changes in Population of Osteoclasts within Bony Callus: 50.60 ± 2.70 Counts present within (200 μm)^2 of bony callus
[7]; [10]
  Changes in Population of Osteoclasts within Bony Callus: 31.00 ± 6.67 Counts present within (200 μm)^2 of bony callus
[7]; [11]
  Changes in Population of Osteoclasts within Bony Callus: 21.60 ± 3.58 Counts present within (200 μm)^2 of bony callus
[7]; [12]
  Changes in Population of Osteoclasts within Bony Callus: 42.60 ± 4.62 Counts present within (200 μm)^2 of bony callus
[7]; [13]
  Changes in Population of Osteoclasts within Bony Callus: 53.60 ± 2.41 Counts present within (200 μm)^2 of bony callus
[7]; [14]
  Changes in Population of Osteoclasts within Bony Callus: 22.20 ± 3.03 Counts present within (200 μm)^2 of bony callus
[7]; [15]
  Changes in Population of Osteoclasts within Bony Callus: 17.60 ± 2.97 Counts present within (200 μm)^2 of bony callus

## Cc1nc(-c2ccc(OCCCCCOc3ccc(C(=N)NO)cc3)cc2)c(C(C)C)s1 [N-hydroxy-4-{5-[4-(5-isopropyl-2-methyl-1,3-thiazol-4-yl)phenoxy]pentoxy}benzamidine]
Rib fracture
  Healing effects on bone fracture: same healing effects as above
